± gives the standard deviation of the averaged measurements.
System: HL-60
Experiment: cell viability (% survival relative to DMSO control); higher = less cytotoxic
Conditions: 72 h
Method in brief: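 HL-60 cells grown in RPMI 1640 with 10% FBS were rescreened against the full library in 384-well plates, in duplicate, at five tenfold concentrations from 1 to 10,000 nM, alongside DMSO or 100 nM of one of three metabolic inhibitors for 72 h at 37 °C, 5% CO2. Reference wells contained DMSO or 10 μM proteasome inhibitor. Viability was read with CellTiter-Glo and normalised to these reference wells, and where reported, area under the curve was taken from four-parameter log-logistic fits in drc and PharmacoGx.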

[1] = 0.001 µM, co-treatment: AZD3965 100 nM
[2] = 0.001 µM, co-treatment: DMSO vehicle
[3] = 0.001 µM, co-treatment: GSK2194069 100 nM
[4] = 0.001 µM, co-treatment: pictilisib 100 nM
[5] = 0.01 µM, co-treatment: AZD3965 100 nM
[6] = 0.01 µM, co-treatment: DMSO vehicle
[7] = 0.01 µM, co-treatment: GSK2194069 100 nM
[8] = 0.01 µM, co-treatment: pictilisib 100 nM
[9] = 0.1 µM, co-treatment: AZD3965 100 nM
[10] = 0.1 µM, co-treatment: DMSO vehicle
[11] = 0.1 µM, co-treatment: GSK2194069 100 nM
[12] = 0.1 µM, co-treatment: pictilisib 100 nM
[13] = 1 µM, co-treatment: AZD3965 100 nM
[14] = 1 µM, co-treatment: DMSO vehicle
[15] = 1 µM, co-treatment: GSK2194069 100 nM
[16] = 1 µM, co-treatment: pictilisib 100 nM
[17] = 10 µM, co-treatment: AZD3965 100 nM
[18] = 10 µM, co-treatment: DMSO vehicle
[19] = 10 µM, co-treatment: GSK2194069 100 nM
[20] = 10 µM, co-treatment: pictilisib 100 nM

SMILES	cell viability [1] [%]	cell viability [2] [%]	cell viability [3] [%]	cell viability [4] [%]	cell viability [5] [%]	cell viability [6] [%]	cell viability [7] [%]	cell viability [8] [%]	cell viability [9] [%]	cell viability [10] [%]	cell viability [11] [%]	cell viability [12] [%]	cell viability [13] [%]	cell viability [14] [%]	cell viability [15] [%]	cell viability [16] [%]	cell viability [17] [%]	cell viability [18] [%]	cell viability [19] [%]	cell viability [20] [%]
O=C1Oc2ccccc2C(=O)C1CC1C(=O)Oc2ccccc2C1=O (stereo not given) [Dicumarol]	101 ± 6	104 ± 3.1	122 ± 4.6	103 ± 4.7	73.3 ± 30	102 ± 6.2	62.5 ± 23	91 ± 15	100 ± 3.5	100 ± 1.2	95.5 ± 1.2	103 ± 9	101 ± 5.3	100 ± 8.3	98.8 ± 5.7	102 ± 11	97.7 ± 4	99.1 ± 4.8	85 ± 7	92.1 ± 5
O=C(O)CC[C@H](NC(=O)c1ccc([N+](=O)[O-])cc1)C(=O)O [(S)-2-(4-Nitrobenzamido)pentanedioic acid]	103.2 ± 0.55	101.4 ± 0.26	101 ± 4	90.7 ± 1.9	106 ± 5.3	100 ± 2.4	110 ± 1.1	102 ± 1.9	102 ± 1.6	99 ± 1.6	103 ± 4.5	88.78 ± 0.71	102 ± 2.1	102 ± 2.3	102 ± 3.7	102 ± 10	103 ± 7.4	101 ± 1.4	99.2 ± 2.3	92.3 ± 24
C#Cc1cnc(O)nc1O [Eniluracil]	86 ± 17	102 ± 2	88.7 ± 30	85.5 ± 17	97.4 ± 1.8	101.6 ± 0.32	93.8 ± 3.5	100.4 ± 0.67	103 ± 2.1	101.1 ± 0.89	100.8 ± 0.49	99.32 ± 0.24	103 ± 1.8	99.9 ± 4.8	95.8 ± 9.8	102 ± 6.5	102.99 ± 0.034	101 ± 4.8	96.7 ± 6.7	103 ± 4.7
O=C(O)c1cc2sccc2[nH]1 [4H-thieno[3,2-b]pyrrole-5-carboxylic acid]	96.3 ± 5.8	101.92 ± 0.033	99.1 ± 7.8	109 ± 14	101 ± 5.4	101 ± 2.9	100.5 ± 0.55	94.5 ± 6.3	94.6 ± 11	103 ± 7.1	101.3 ± 0.73	97.3 ± 4.2	76.4 ± 8.7	97.47 ± 0.64	90.2 ± 1.1	84.3 ± 7.3	104 ± 11	104 ± 3.8	100 ± 9.4	99.3 ± 9.8
CC(/C=C1\SC(=S)N(CC(=O)O)C1=O)=C\c1ccccc1 [Epalrestat]	102 ± 1.1	100 ± 6.5	102 ± 5.9	92 ± 4.1	64.9 ± 48	79.3 ± 39	79.1 ± 29	75.1 ± 35	105.5 ± 0.65	102 ± 4	109 ± 3.6	97.1 ± 7.8	101.8 ± 0.5	100.82 ± 0.007	107.58 ± 0.028	95.4 ± 13	87.6 ± 2.7	94.16 ± 0.38	94.2 ± 4.2	88.6 ± 2.3
C1CCc2nnc(C34CC5CC(CC(C5)C3)C4)n2CC1 [MERCK-544]	103 ± 3	98.4 ± 1.3	105 ± 1.7	97 ± 1.1	103.1 ± 0.36	103 ± 2.8	108 ± 2	109 ± 8.3	99.41 ± 0.58	98.1 ± 2.4	99.8 ± 1.6	96.63 ± 0.71	100.6 ± 0.51	99.7 ± 1.4	96.27 ± 0.66	95.52 ± 0.25	108 ± 2	101 ± 2.6	109 ± 5.7	102 ± 10
CC(C)Cc1sc(N)nc1-c1ccc(P(=O)(O)O)o1	105 ± 4.8	101 ± 7.6	108 ± 9.1	97.8 ± 1.5	99.1 ± 8.8	100.4 ± 0.35	96.7 ± 7.1	89.8 ± 15	99.2 ± 21	105 ± 7.3	103 ± 8.6	109 ± 9.9	102 ± 3.8	104 ± 1.7	105 ± 3	98.8 ± 7.3	101 ± 1.6	99.2 ± 4.2	100 ± 3.6	105 ± 9.4
COc1cc2c(NC3CCN(C)CC3)nc(N3CCCN(C)CC3)nc2cc1OCCCN(C)C [UNC0224]	102 ± 2.2	104 ± 2.2	114 ± 13	101 ± 1.9	101 ± 5.6	103 ± 7.6	113 ± 31	108 ± 0.28	100 ± 1.5	102 ± 6.9	96.8 ± 5.5	102 ± 9.6	99.416 ± 0.052	101 ± 1.8	96.3 ± 3.7	103 ± 1.8	95.6 ± 0.11	93.3 ± 4.4	91.9 ± 6.9	74.8 ± 9.6
[N-]=[N+]=CC(=O)CC[C@H](N)C(=O)O [6-Diazo-5-oxo-L-norleucine]	97.4 ± 11	98.1 ± 2.5	96.8 ± 8.2	86.7 ± 24	97.3 ± 4.9	100.1 ± 0.89	101 ± 3.5	102 ± 4.2	111 ± 13	103 ± 1.3	105 ± 9.1	102 ± 3.5	100.44 ± 0.019	101 ± 2.2	103 ± 6.7	105 ± 7.1	100 ± 1.3	101 ± 2.1	101.3 ± 0.3	87.8 ± 10
N[C@](CCCCB(O)O)(CCN1CCCCC1)C(=O)O [Arginase inhibitor 1]	94.6 ± 14	102.5 ± 0.45	91.7 ± 12	87.5 ± 14	98.6 ± 5.9	97.3 ± 2	100 ± 5.7	94.4 ± 4.9	99.9 ± 2.7	102 ± 3.7	109.7 ± 0.86	98.3 ± 3	99.151 ± 0.014	98.12 ± 0.95	90.6 ± 12	90.8 ± 6.9	102.3 ± 0.42	103 ± 7.5	101 ± 6.6	99.5 ± 2.6
Nc1ccn([C@@H]2O[C@H](CO)[C@@H](O)[C@@H]2O)c(=O)n1 [Cytarabine]	82 ± 32	80.7 ± 36	99.2 ± 2.5	103 ± 14	96.1 ± 7.4	102 ± 1.5	97.4 ± 1.3	101 ± 5.1	99.4 ± 4.1	101 ± 2.5	95.8 ± 1.5	84.52 ± 0.57	46.7 ± 9.3	59.5 ± 7	60.6 ± 3.9	30.9 ± 0.58	6.3 ± 2.2	6.92 ± 1.2	7.86 ± 0.42	6.83 ± 3
C1CCC(C(CC2CCCCN2)C2CCCCC2)CC1.O=C(O)/C=C\C(=O)O (stereo not given) [Perhexiline]	101 ± 3.6	108 ± 3.6	104.6 ± 0.56	90.6 ± 16	95.4 ± 6.8	102 ± 4.9	91.3 ± 14	98.9 ± 25	108 ± 5.2	103 ± 3.9	99 ± 9.2	112.1 ± 0.54	99.1 ± 2.5	105 ± 2.4	86.4 ± 9.4	73.2 ± 25	-0.971 ± 0.58	-1.01 ± 1.6	-1.86 ± 0.47	-1.67 ± 0.61
Cc1coc2c1C(=O)C(=O)c1c-2ccc2c(C)cccc12 [Tanshinone I]	100.1 ± 0.2	97.288 ± 0.063	94.6 ± 6.6	97.1 ± 5.6	101 ± 1.8	103 ± 6.3	103.8 ± 0.31	104 ± 3.1	104 ± 9.7	101.8 ± 0.9	108 ± 12	101 ± 0.32	104 ± 1.6	103.5 ± 0.31	102 ± 4.4	103.6 ± 0.57	100.3 ± 0.27	97.2 ± 5.3	101 ± 1.4	106 ± 9.7

From the supplement of paper PMC8671470
